Measurements published in the supplement of paper PMC8960247.

Key:
[1] = test system: 621-102 (TSC2-deficient); assay: relative viability vs DMSO (fraction); higher = less cytotoxic; settings: serum: 0.1% FBS, 72 h
[2] = test system: UMB1949 (TSC2-deficient); assay: as above; settings: serum: 0.1% FBS, 72 h
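Also: renal angiomyolipoma cell lines screened in 384-well plates, viability normalized per plate to DMSO-treated cells, each plate carrying 50 nM rapamycin and 1 µM staurosporine controls.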

For `CN1CC[C@H](c2c(O)cc(O)c3c(=O)cc(-c4ccccc4Cl)oc23)[C@H](O)C1` [Flavopiridol(Alvocidib)], the relative viability ([1]; 0.0128 nM) was 1.14, the relative viability ([1]; 0.064 nM) was 1.2 and the relative viability ([1]; 0.32 nM) was 1.24. For the same compound, the relative viability ([1]; 1.6 nM) was 1.15, the relative viability ([1]; 8 nM) was 0.972 and the relative viability ([1]; 40 nM) was 0.212. It also gave a relative viability ([1]; 200 nM) of 0.00428, a relative viability ([1]; 1000 nM) of 0.00239 and a relative viability ([1]; 5000 nM) of 0.00377. It also gave a relative viability ([2]; 0.0128 nM) of 1.12, a relative viability ([2]; 0.064 nM) of 1.16 and a relative viability ([2]; 0.32 nM) of 1.04. It also gave a relative viability ([2]; 1.6 nM) of 1.21, a relative viability ([2]; 8 nM) of 1.08 and a relative viability ([2]; 40 nM) of 0.923. It also gave a relative viability ([2]; 200 nM) of 0.00682, a relative viability ([2]; 1000 nM) of 0.00291 and a relative viability ([2]; 5000 nM) of 0.00348.
In the case of `CC(C)C[C@@H](C=O)NC(=O)[C@H](CC(C)C)NC(=O)[C@H](CC(C)C)NC(=O)OCc1ccccc1` [MG132], the relative viability ([1]; 0.0128 nM) is reported as 0.611, the relative viability ([1]; 0.064 nM) is reported as 0.586 and the relative viability ([1]; 0.32 nM) is reported as 0.383. For the same compound, the relative viability ([1]; 1.6 nM) was 0.272, the relative viability ([1]; 8 nM) was 0.148 and the relative viability ([1]; 40 nM) was 0.00944. For the same compound, the relative viability ([1]; 200 nM) was 0.00319, the relative viability ([1]; 1000 nM) was 0.00253 and the relative viability ([1]; 5000 nM) was 0.0116. The relative viability ([2]; 0.0128 nM) was 0.846, the relative viability ([2]; 0.064 nM) was 0.0534 and the relative viability ([2]; 0.32 nM) was 0.0466. For the same compound, the relative viability ([2]; 1.6 nM) was 0.00704, the relative viability ([2]; 8 nM) was 0.00406 and the relative viability ([2]; 40 nM) was 0.00242. The relative viability ([2]; 200 nM) was 0.00153, the relative viability ([2]; 1000 nM) was 0.000971 and the relative viability ([2]; 5000 nM) was 0.00561.
For `Cc1ccc(NC(=O)c2ccc(CN3CCN(C)CC3)cc2)cc1Nc1nc(-c2cccnc2)cs1` [Masitinib(AB1010)], the relative viability ([1]; 0.0128 nM) was 0.869, the relative viability ([1]; 0.064 nM) was 0.9 and the relative viability ([1]; 0.32 nM) was 0.886. The relative viability ([1]; 1.6 nM) was 0.951, the relative viability ([1]; 8 nM) was 0.909 and the relative viability ([1]; 40 nM) was 0.82. The relative viability ([1]; 200 nM) was 0.683, the relative viability ([1]; 1000 nM) was 0.277 and the relative viability ([1]; 5000 nM) was 0.0135. For the same compound, the relative viability ([2]; 0.0128 nM) was 1.09, the relative viability ([2]; 0.064 nM) was 1.21 and the relative viability ([2]; 0.32 nM) was 1.16. It also gave a relative viability ([2]; 1.6 nM) of 1.18, a relative viability ([2]; 8 nM) of 1.09 and a relative viability ([2]; 40 nM) of 1.19. The relative viability ([2]; 200 nM) was 0.96, the relative viability ([2]; 1000 nM) was 0.156 and the relative viability ([2]; 5000 nM) was 0.0043.
`Nc1ccccc1NC(=O)c1ccc(CNc2nccc(-c3cccnc3)n2)cc1` [Mocetinostat] showed a relative viability ([1]; 0.0128 nM) of 0.964, a relative viability ([1]; 0.064 nM) of 0.98 and a relative viability ([1]; 0.32 nM) of 0.857. For the same compound, the relative viability ([1]; 1.6 nM) was 0.954, the relative viability ([1]; 8 nM) was 0.735 and the relative viability ([1]; 40 nM) was 0.401. The relative viability ([1]; 200 nM) was 0.174, the relative viability ([1]; 1000 nM) was 0.084 and the relative viability ([1]; 5000 nM) was 0.00442. The relative viability ([2]; 0.0128 nM) was 1.24, the relative viability ([2]; 0.064 nM) was 1.09 and the relative viability ([2]; 0.32 nM) was 1.05. The relative viability ([2]; 1.6 nM) was 1.02, the relative viability ([2]; 8 nM) was 0.951 and the relative viability ([2]; 40 nM) was 0.578. It also gave a relative viability ([2]; 200 nM) of 0.0241, a relative viability ([2]; 1000 nM) of 0.00165 and a relative viability ([2]; 5000 nM) of 0.00203.
`Cc1[nH]c2ccccc2c1CCNCc1ccc(/C=C/C(=O)NO)cc1` [Panobinostat (LBH589)] was tested, and the relative viability ([1]; 0.0128 nM) was 1.34, the relative viability ([1]; 0.064 nM) was 0.935 and the relative viability ([1]; 0.32 nM) was 1.1. The relative viability ([1]; 1.6 nM) was 0.909, the relative viability ([1]; 8 nM) was 0.458 and the relative viability ([1]; 40 nM) was 0.228. For the same compound, the relative viability ([1]; 200 nM) was 0.0101, the relative viability ([1]; 1000 nM) was 0.00297 and the relative viability ([1]; 5000 nM) was 0.00203. It also gave a relative viability ([2]; 0.0128 nM) of 1.08, a relative viability ([2]; 0.064 nM) of 1.02 and a relative viability ([2]; 0.32 nM) of 0.955. For the same compound, the relative viability ([2]; 1.6 nM) was 0.779, the relative viability ([2]; 8 nM) was 0.0132 and the relative viability ([2]; 40 nM) was 0.00793. For the same compound, the relative viability ([2]; 200 nM) was 0.0069, the relative viability ([2]; 1000 nM) was 0.00422 and the relative viability ([2]; 5000 nM) was 0.00261.
`CO[C@H]1C[C@@H]2CC[C@@H](C)[C@@](O)(O2)C(=O)C(=O)N2CCCC[C@H]2C(=O)O[C@H]([C@H](C)C[C@@H]2CC[C@@H](O)[C@H](OC)C2)CC(=O)[C@H](C)/C=C(\C)[C@@H](O)[C@@H](OC)C(=O)[C@H](C)C[C@H](C)/C=C/C=C/C=C/1C` [Rapamycin(Sirolimus)] was tested, and the relative viability ([1]; 0.0128 nM) was 0.506, the relative viability ([1]; 0.064 nM) was 0.495 and the relative viability ([1]; 0.32 nM) was 0.584. The relative viability ([1]; 1.6 nM) was 0.441, the relative viability ([1]; 8 nM) was 0.385 and the relative viability ([1]; 40 nM) was 0.388. The relative viability ([1]; 200 nM) was 0.254, the relative viability ([1]; 1000 nM) was 0.277 and the relative viability ([1]; 5000 nM) was 0.222. It also gave a relative viability ([2]; 0.0128 nM) of 0.874, a relative viability ([2]; 0.064 nM) of 0.825 and a relative viability ([2]; 0.32 nM) of 0.847. The relative viability ([2]; 1.6 nM) was 0.773, the relative viability ([2]; 8 nM) was 0.818 and the relative viability ([2]; 40 nM) was 0.841. The relative viability ([2]; 200 nM) was 0.593, the relative viability ([2]; 1000 nM) was 0.466 and the relative viability ([2]; 5000 nM) was 0.364.
